Calls of active or inactive are those of the source. The calls are words filed in the database; no cut-off is given here.

Experiment [1] addresses T1, Leucine-rich repeat serine/threonine-protein kinase 2 (Homo sapiens, UniProt Q5S007). Put plainly: Inhibition of wild-type LRRK2 expressed in HEK293 cells using nictide and [gamma32]ATP as substrate.
Experiment [2] deals with T1, Leucine-rich repeat serine/threonine-protein kinase 2. Put plainly: Inhibition of wild type LRRK2 phosphorylation at Ser910 in human lymphoblastoid cells at 0.03 to 3 uM after 90 mins by Western blot analysis. The class given is cell-based. (In western blotting, separated proteins are transferred to a membrane and probed.)
Experiment [3] has the same target. Put plainly: Inhibition of wild type LRRK2 phosphorylation at Ser935 in human lymphoblastoid cells at 0.03 to 3 uM after 90 mins by Western blot analysis. Type of experiment: cell-based.
The subject of experiment [4] is Mus musculus. Put plainly: Inhibition of LRRK2 phosphorylation at Ser910 in C57BL/6 mouse kidney at 100 mg/kg, po administered for 8 hrs followed by 2 hrs dosing. The class given is functional, organism-based. Further details: dose 100 mg/kg.
In experiment [5] the test system is Mus musculus. Put plainly: Inhibition of LRRK2 phosphorylation at Ser935 in C57BL/6 mouse kidney at 100 mg/kg, po administered for 8 hrs followed by 2 hrs dosing. The class given is functional, organism-based. Details: dose 100 mg/kg.
Experiment [6] deals with Mus musculus. Put plainly: Inhibition of LRRK2 phosphorylation at Ser910 in C57BL/6 mouse spleen at 100 mg/kg, po administered for 8 hrs followed by 2 hrs dosing. The class given is functional, organism-based. Details: dose 100 mg/kg.
Experiment [7] has as its system Mus musculus. Put plainly: Inhibition of LRRK2 phosphorylation at Ser935 in C57BL/6 mouse spleen at 100 mg/kg, po administered for 8 hrs followed by 2 hrs dosing. The class given is functional, organism-based. Further details: dose 100 mg/kg.
Experiment [8] concerns the target T1, Leucine-rich repeat serine/threonine-protein kinase 2. To be noted: HEK293; 0.03 to 3 uM.
Description: Inhibition of wild-type LRRK2 phosphorylation at Ser935 expressed in HEK293 cells at 0.03 to 3 uM after 90 mins by immunoblot analysis
The target is the same in experiment [9]. To be noted: HEK293; 0.03 to 3 uM. This is another data set of the same source.
Description: Inhibition of wild-type LRRK2 phosphorylation at Ser910 expressed in HEK293 cells at 0.03 to 3 uM after 90 mins by immunoblot analysis

T1 sequence (Q5S007 whole entry): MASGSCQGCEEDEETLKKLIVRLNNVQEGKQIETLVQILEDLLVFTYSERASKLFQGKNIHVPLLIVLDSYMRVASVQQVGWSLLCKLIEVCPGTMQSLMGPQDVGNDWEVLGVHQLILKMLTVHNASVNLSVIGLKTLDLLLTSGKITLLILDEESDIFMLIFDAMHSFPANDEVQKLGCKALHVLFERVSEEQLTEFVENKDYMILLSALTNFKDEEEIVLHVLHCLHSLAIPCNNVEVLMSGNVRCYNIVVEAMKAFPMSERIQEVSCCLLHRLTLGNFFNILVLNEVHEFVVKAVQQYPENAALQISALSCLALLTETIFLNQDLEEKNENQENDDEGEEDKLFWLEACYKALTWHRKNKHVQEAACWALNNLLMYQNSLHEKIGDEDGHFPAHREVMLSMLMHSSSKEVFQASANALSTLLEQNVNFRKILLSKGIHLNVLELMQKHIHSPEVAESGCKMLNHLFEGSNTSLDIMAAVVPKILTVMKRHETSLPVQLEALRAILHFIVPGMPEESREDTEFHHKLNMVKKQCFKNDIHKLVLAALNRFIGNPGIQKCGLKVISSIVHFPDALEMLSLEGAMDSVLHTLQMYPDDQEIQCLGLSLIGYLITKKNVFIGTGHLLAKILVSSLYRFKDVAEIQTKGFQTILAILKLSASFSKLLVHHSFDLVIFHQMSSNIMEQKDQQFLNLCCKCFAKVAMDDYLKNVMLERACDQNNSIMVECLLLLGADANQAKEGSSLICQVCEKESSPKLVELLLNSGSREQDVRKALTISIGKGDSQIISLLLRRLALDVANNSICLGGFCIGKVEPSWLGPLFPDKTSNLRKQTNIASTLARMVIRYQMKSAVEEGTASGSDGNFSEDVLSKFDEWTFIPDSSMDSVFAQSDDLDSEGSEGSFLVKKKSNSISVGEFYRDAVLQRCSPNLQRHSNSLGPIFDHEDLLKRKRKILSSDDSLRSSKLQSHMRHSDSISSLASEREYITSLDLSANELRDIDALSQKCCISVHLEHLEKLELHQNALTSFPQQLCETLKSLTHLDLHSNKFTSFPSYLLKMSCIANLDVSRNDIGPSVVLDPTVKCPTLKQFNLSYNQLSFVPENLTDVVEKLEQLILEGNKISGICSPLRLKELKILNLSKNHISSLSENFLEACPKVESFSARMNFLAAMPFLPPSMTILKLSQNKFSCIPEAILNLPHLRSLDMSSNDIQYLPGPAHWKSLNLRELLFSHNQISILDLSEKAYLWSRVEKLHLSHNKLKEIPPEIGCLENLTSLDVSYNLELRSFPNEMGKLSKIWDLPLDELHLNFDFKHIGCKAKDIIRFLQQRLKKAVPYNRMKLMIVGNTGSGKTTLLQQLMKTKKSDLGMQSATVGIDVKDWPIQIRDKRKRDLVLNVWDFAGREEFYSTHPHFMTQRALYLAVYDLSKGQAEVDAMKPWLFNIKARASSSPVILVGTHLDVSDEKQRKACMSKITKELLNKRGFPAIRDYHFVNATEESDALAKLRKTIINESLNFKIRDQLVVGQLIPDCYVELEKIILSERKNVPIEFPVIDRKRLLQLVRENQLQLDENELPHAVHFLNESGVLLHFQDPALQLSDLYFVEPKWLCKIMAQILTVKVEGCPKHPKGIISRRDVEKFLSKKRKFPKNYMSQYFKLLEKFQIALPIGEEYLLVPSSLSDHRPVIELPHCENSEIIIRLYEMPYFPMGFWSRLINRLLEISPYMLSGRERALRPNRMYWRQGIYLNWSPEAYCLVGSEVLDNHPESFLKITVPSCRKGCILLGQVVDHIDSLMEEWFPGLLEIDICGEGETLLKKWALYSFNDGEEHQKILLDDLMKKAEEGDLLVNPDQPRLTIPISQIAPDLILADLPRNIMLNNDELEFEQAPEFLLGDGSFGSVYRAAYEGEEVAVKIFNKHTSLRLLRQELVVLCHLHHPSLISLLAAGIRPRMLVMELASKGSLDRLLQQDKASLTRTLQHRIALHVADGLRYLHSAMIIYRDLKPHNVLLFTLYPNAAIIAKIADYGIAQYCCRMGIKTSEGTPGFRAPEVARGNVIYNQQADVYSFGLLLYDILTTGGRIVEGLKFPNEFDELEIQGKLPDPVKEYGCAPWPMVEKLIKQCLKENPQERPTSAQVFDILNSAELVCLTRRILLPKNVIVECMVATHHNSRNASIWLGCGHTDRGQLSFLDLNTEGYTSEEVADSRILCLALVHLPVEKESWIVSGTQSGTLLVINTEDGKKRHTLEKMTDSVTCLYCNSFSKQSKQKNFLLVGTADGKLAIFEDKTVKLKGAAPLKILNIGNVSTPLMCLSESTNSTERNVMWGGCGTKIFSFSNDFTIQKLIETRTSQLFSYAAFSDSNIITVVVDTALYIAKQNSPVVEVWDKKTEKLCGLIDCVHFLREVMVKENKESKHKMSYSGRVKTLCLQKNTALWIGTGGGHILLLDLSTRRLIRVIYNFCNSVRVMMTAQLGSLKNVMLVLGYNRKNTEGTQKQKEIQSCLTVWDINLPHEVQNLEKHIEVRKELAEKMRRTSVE

One may read the IC50 as the concentration at which inhibition is half-maximal. A lower IC50 goes with higher potency. With `COc1cc(C(=O)N2CCC(N3CCN(C)CC3)CC2)ccc1Nc1ncc2c(n1)N(C)c1ccccc1C(=O)N2C`, half-maximal inhibition in experiment [1] (IC50) required 0.013 µM. For the same molecule, the inhibition result (in [2]; in experiment [3]; in the experiment with Mus musculus [4]; with Mus musculus [5]; in the experiment on Mus musculus [6]; in the experiment with Mus musculus [7]) was “Active” throughout. In addition, the inhibition result in [8] and in experiment [9] was “Active” each time.

These data come from ChEMBL document CHEMBL2010643 (Bioorg Med Chem Lett, 2012).
